Measurements from patent US9464064B2, “HCV helicase inhibitors and methods of use thereof” (University of Kansas, priority 2011, dated 2016).
Where two headings read alike, the source gives them in different places.

Key:
[1] = biological target: T1, NS3h_2a(JFH1) (Hepatitis C virus genotype 2a, UniProt Q99IB8); assay: MBHA, DNA substrate, genotype 2a helicase; type: biochemical, hepatitis C virus genotype 2a(JFH1)
T1 construct: truncated C-terminally His-tagged NS3 proteins lacking the N-terminal protease, called NS3h; His-tag (C); made in house
T1 sequence (Q99IB8 1196-1661): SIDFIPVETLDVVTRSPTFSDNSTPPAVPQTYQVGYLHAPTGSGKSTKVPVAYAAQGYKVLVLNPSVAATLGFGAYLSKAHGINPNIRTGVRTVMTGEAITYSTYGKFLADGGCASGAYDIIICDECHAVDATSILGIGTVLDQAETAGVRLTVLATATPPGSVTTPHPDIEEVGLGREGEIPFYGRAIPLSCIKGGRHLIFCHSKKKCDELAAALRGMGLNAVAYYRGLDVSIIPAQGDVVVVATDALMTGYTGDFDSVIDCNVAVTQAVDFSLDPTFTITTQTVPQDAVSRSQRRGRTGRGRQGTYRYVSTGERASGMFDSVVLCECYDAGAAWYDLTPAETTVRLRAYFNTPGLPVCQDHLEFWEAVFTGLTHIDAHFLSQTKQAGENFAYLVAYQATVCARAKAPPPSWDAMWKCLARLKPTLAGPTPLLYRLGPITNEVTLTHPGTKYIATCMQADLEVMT
Method: All oligonucleotides were purchased from Integrated DNA Technologies (IDT, Coralville, Iowa). Primuline derivatives were synthesized and purified as described herein. Three different NS3 proteins were used in this study. Two were truncated C-terminally His-tagged NS3 proteins lacking the N-terminal protease, called NS3h, the third was a full-length NS3 with the portion of NS4A needed for protease activation fused to its N-terminus, called scNS4A-NS3 (Howe, et al. (1999) Protein Sci. 8:1332-41), and the fourth was a 23 kDa scNS4A-NS3 protease fragment lacking the helicase domains, called scNS4A-NS3p (Protein One, Rockville, Md.). NS3h was expressed from two different HCV strains. NS3h_1b(con1) was from the con1 strain of genotype 1b (GENBANK accession AB114136), and NS3h_2a(JFH1) was from the JFH1 strain of HCV genotype 2a (GENBANK accession AJ238799). […] His-tagged recombinant NS3h_1b(con1), NS3h_2a(JFH1), and scNS4A-NS3 (also from genotype 1b(con1)) were expressed, and purified as previously described (Frick, et al. (2010) supra; Lam, et al. (2003) J. Virol. 77:3950-3961). The scNS4A-NS3p (genotype 1b) was from Protein One. A plasmid expressing NS3h from dengue virus strain 2 (NS3h_DV2)(GENBANK accession 2BMF) is known in the art (Xu, et al. (2005) J. Virol. 79:10278-10288), and used to express and purify NS3h_DV2 (Belon, et al. (2010) supra)
Compounds that specifically target less conserved regions of a HCV protein are often not potent inhibitors of the same protein derived from other genotypes, and they might be susceptible to rapid evolution of related viruses. As described herein, primuline derivatives can inhibit HCV helicase isolated from the genotype 1b(con1) strain. Therefore to further analyze specificity, the subset of primuline analogs was tested on the helicase isolated from the genotype 2a(JFH1) strain. The two recombinant proteins differ at 83 of their 480 amino acids. The JHF1 strain is also of interest because it serves as the backbone for HCV strains capable of replicating in cell culture (Wakita, et al. (2005) Nat. Med. 11:791-796). The molecular beacon-based helicase assay (MBHA) (Belon & Frick (2008) supra) was used to measure the ability of each compound to inhibit DNA unwinding catalyzed by NS3h isolated from genotype 2a(JFH1) (NS3h_2a(JFH1)). […] Selected compounds were also tested for the ability to inhibit helicase reactions catalyzed by full-length NS3 and a single chain NS4A-NS3 protein (scNS4A-NS3) described below and used for protease assays.

[2] = system: MBHA DNA substrate; assay: Modified FID assay, SYBR Green I; type: binding; details: for DNA binding (%): SYBR Green I-FID, average (±SD) percent bound at 100 μM
Method: A modified FID assay, in which ethidium bromide was replaced with SYBR Green I (Invitrogen), was used to estimate a compounds affinity for the MBHA substrate. Reactions were performed as described above except that the DNA substrate was present at 0.32 μM, ethidium bromide was absent, and SYBER Green was present at (0.68 μM). Data were normalized as described above and fit to concentration-response equation using GraphPad Prism software. Titrations with each compound were performed in triplicate, and EC50 values from three independent titrations are reported ±standard deviations.

[3] = biological target: T2, E. coli SSB-Cy5-dT15 complex (Escherichia coli, UniProt P0AGE0); assay: Escherichia coli SSB Cy5-dT15 binding assay (fluorescence polarization); details: for IC50: disruption of Cy5-dT15-SSB complex, read-out: Cy5-dT15-SSB Binding IC50; for inhibition at 100 µM: read-out: SSB % Displaced @ 100 μM; for EC50: read-out: SSB EC50
T2 construct: purchased Promega
T2 sequence (P0AGE0 2-178, one chain of several): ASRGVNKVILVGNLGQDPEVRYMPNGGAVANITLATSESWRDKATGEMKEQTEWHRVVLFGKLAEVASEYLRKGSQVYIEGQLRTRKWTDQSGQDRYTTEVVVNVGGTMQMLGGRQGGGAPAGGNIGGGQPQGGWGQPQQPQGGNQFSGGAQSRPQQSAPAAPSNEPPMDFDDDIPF
Method: The Escherichia coli SSB assay was performed in a total volume of 20.2 μl in 384-well, flat-bottom, low volume, black microplates (Greiner Bio-One). First, 20 μl of a assay solution (5 nM Cy5-[…]-3′ (Cy5-dT15, SEQ ID NO:5), 20 nM E. coli SSB (Promega), 25 mM MOPS, pH 7.5, 1.25 mM MgCl2, 0.0025 mg/ml BSA, 0.005% (v/v) TWEEN 20 and 0.025 mM DTT) was dispensed in each well, then 0.2 μl of dimethylsulfoxide (DMSO) or compound dissolved in DMSO was added by pin transfer, such that the final concentration of DMSO was 1% (v/v) in each assay.
For IC50 determination, assays were performed with 60 μl total volume in black flat bottomed 384-well microplates (Corning). First, 3.0 μl of DMSO or compound dissolved in DMSO was added, such that the final concentration of DMSO was 5% (v/v) in each assay. Then 57 μl of a assay solution (5 nM Cy5-dT15, 20 nM SSB, 25 mM MOPS, pH 7.5, 1.25 mM MgCl2, 0.0025 mg/ml BSA, 0.005% (v/v) TWEEN 20 and 0.025 mM DTT) was dispensed in each well. Polarization was monitored with a TECAN Infinite M1000 PRO multi-mode microplate reader by exciting at 635 nm (5 nm bandwidth) and measuring total fluorescence intensity, parallel and perpendicular polarized light at 667 nm (20 nm bandwidth).

[4] = system: Huh-7.5 cells; assay: Cell viability assay ([…]-GLO); type: cell-based, human; details: for Cell viability (% viable): 10 μM compound, triplicate, average ± SD
Method: To assess compound toxicity toward Huh-7.5 cells, cells were plated and treated as above and cell viability was assessed using the […]-GLO luminescent cell viability kit (PROMEGA) following the manufacturer's instructions. Briefly, at the end of a 72 hour incubation period, the medium was aspirated and the cells were washed with 1×PBS, then an equal volume of growth medium and […]-GLO reagent was added and the lysis was initiated by mixing on an orbital shaker. The plate was incubated at 23° C. for 30 minutes and the luciferase activity was measured for 1 second using the FLUOSTAR Omega microplate reader (BMG Labtech).

[5] = genotype 2a (JFH1), read-out: Target Potency MBHA (IC50 avg., μM) 2a (JFH1) (converted)
[6] = SYBR Green, read-out: FID (SG) EC50 (converted)
[7] = DNA-based MBHA, genotype 2a(JFH1), read-out: DNA Helicase NS3h_2a IC50 (μM) ± SD

| SMILES | IC50 [1, 5] | DNA binding (%) [2] | FID (SG) % Displaced @ 100 μM ([2]; SYBR Green) | EC50 [2, 6] | IC50 [3] | inhibition at 100 µM [3] | EC50 [3] | Cell Viability (% @ 10 μM) [4] | Cell viability (% viable) [4] | IC50 [1, 7] | toxicity at highest concentration tested ([4]; 50 μM) | fold weaker DNA binding than potency in MBHA ([2]; DNA binding versus MBHA IC50) | EC50 ([2]; FID, mean ± SD, read-out: DNA Binding (SYBR Green I) EC50) |
| --- | --- | --- | --- | --- | --- | --- | --- | --- | --- | --- | --- | --- | --- |
| Cc1ccc2nc(-c3ccc4nc(-c5ccc(NC(=O)c6ccccc6C(F)(F)F)cc5)sc4c3)sc2c1S(=O)(=O)O [Compound 19, 6-methyl-2′-(4-(2-(trifluoromethyl)benzamido)phenyl)-[2,6′-bibenzo[d]thiazole]-7-sulfonic acid] | 24.3 ± 9 µM | 30 ± 15% | 30 ± 15% | > 100 µM | 13 ± 2 µM | 92% | 13 ± 2 µM | 112 ± 1% | 112 ± 1% |  |  |  |  |
| Cc1ccc2nc(-c3ccc4nc(-c5ccc(NS(=O)(=O)c6ccc(C(F)(F)F)cc6)cc5)sc4c3)sc2c1S(=O)(=O)O | 35 µM |  |  |  |  |  |  | 101 ± 6% |  |  |  |  |  |
| Cc1ccc2nc(-c3ccc4nc(-c5ccc(NC(=O)c6cc(C(F)(F)F)cc(C(F)(F)F)c6)cc5)sc4c3)sc2c1S(=O)(=O)O [Compound 24, 2′-(4-(3,5-bis(trifluoromethyl)benzamido)phenyl)-6-methyl-[2,6′-bibenzo[d]thiazole]-7-sulfonic acid] | 28.7 ± 5 µM | 43 ± 13% | 43 ± 13% | 86 ± 210 µM | 36 ± 7 µM | 73% | 36 ± 7 µM | 122 ± 5% | 122 ± 5% | 29 ± 5.2 µM | not toxic |  |  |
| Cc1ccc2nc(-c3ccc4nc(-c5ccc(NC(=O)c6cccnc6)cc5)sc4c3)sc2c1S(=O)(=O)O [Compound 31, 6-methyl-2′-(4-(nicotinamido)phenyl)-[2,6′-bibenzo[d]thiazole]-7-sulfonic acid] | 48 µM | 15 ± 10% | 15 ± 10% | > 100 µM | 173 ± 354 µM | 48% | > 100 µM | 113 ± 6% | 113 ± 6% |  |  |  |  |
| Cc1ccc2nc(-c3ccc(NC(=O)c4ccc(N)cc4)cc3)sc2c1S(=O)(=O)O | 64 µM |  |  |  |  |  |  | 103 ± 6% |  |  |  |  |  |
| Cc1ccc2nc(-c3ccc4nc(-c5ccc(NC(=O)c6cc(F)ccc6C(F)(F)F)cc5)sc4c3)sc2c1S(=O)(=O)O [Compound 26, 2′-(4-(5-fluoro-2-(trifluoromethyl)benzamido)phenyl)-6-methyl-[2,6′-bibenzo[d]thiazole]-7-sulfonic acid] | 16.6 ± 2 µM | 35 ± 21% | 35 ± 21% | > 100 µM | 14 ± 2 µM | 95% | 14 ± 2 µM | 118 ± 4% | 118 ± 4% |  |  |  |  |
| Cc1ccc2nc(-c3ccc4nc(-c5ccc(N(C)C(=O)c6ccc7ccccc7c6)cc5)sc4c3)sc2c1S(=O)(=O)O [Compound 34, 6-methyl-2′-(4-(N-methyl-2-naphthamido)phenyl)-[2,6′-bibenzo[d]thiazole]-7-sulfonic acid] | 13.5 µM | 35 ± 23% | 35 ± 23% | > 100 µM | 9 ± 2 µM | 105% | 9 µM | 101 ± 9% |  |  |  |  |  |
| Cc1ccc2nc(-c3ccc4nc(-c5ccc(NC(=O)c6ccc(Br)cc6)cc5)sc4c3)sc2c1S(=O)(=O)O [Compound 15, 2′-(4-(4-bromobenzamido)phenyl)-6-methyl-[2,6′-bibenzo[d]thiazole]-7-sulfonic acid] | 7.4 ± 3 µM | 70 ± 9% | 70 ± 9% | 30 ± 13 µM | 27 ± 6 µM | 91% | 27 ± 6 µM | 113 ± 5% | 113 ± 5% | 7 ± 3.3 µM |  |  |  |
| Cc1ccc2nc(-c3ccc(NC(=O)c4ccc(C(F)(F)F)cc4)cc3)sc2c1S(=O)(=O)O | > 100 µM |  |  |  |  |  |  | 102 ± 9% |  |  |  |  |  |
| Cc1ccc2nc(-c3ccc4nc(-c5ccc(NC(=O)c6ccc7ncoc7c6)cc5)sc4c3)sc2c1S(=O)(=O)O | 6.4 µM |  |  |  |  |  |  | 114 ± 13% |  |  |  |  |  |
| Cc1ccc2nc(-c3ccc4nc(-c5ccc(N)cc5)sc4c3)sc2c1S(=O)(=O)O [Compound P2a, 2′-(4-aminophenyl)-6-methyl-[2,6′-bibenzo[d]thiazole]-7-sulfonic acid] |  |  |  |  | 2 µM |  |  |  |  | 58 ± 51 µM |  |  |  |
| Cc1ccc2nc(-c3ccc(NC(=S)Nc4ccccc4Br)cc3)sc2c1 | > 100 µM |  |  |  |  |  |  | 39 ± 10% |  |  |  |  |  |
| Cc1ccc2nc(-c3ccc4nc(NC(=O)c5ccc6ncoc6c5)sc4c3)sc2c1 | 75 ± 32.6 µM |  |  |  |  |  |  | 28 ± 5% |  |  |  |  |  |
| Cc1ccc2nc(-c3ccc4nc(-c5ccc6nc(-c7ccc8nc(-c9ccc(N)cc9)sc8c7)sc6c5)sc4c3)sc2c1S(=O)(=O)O [Compound P4, 2′″-(4-aminophenyl)-6-methyl-[2,6′:2″,6′″-quaterbenzo[d]thiazole]-7-sulfonic acid] |  |  |  |  |  |  |  |  |  | 1 ± 0.3 µM |  | 17 fold | 15 ± 8 µM |
| Cc1ccc2nc(-c3ccc(NC(=O)c4ccc(NS(=O)(=O)c5ccccc5)cc4)cc3)sc2c1S(=O)(=O)O | > 100 µM |  |  |  |  | 61% | > 100 µM | 119 ± 11% |  |  |  |  |  |
